pEC50: −log10 of the molar value. Where two headings read alike, the source gives them in different places.

Assay type in all cases: cell-based
The target in one assay is T1, TRPML3 (Homo sapiens, UniProt Q8TDD5).
T1 construct: expressed in transfected cells
T1 sequence (Q8TDD5 1-553): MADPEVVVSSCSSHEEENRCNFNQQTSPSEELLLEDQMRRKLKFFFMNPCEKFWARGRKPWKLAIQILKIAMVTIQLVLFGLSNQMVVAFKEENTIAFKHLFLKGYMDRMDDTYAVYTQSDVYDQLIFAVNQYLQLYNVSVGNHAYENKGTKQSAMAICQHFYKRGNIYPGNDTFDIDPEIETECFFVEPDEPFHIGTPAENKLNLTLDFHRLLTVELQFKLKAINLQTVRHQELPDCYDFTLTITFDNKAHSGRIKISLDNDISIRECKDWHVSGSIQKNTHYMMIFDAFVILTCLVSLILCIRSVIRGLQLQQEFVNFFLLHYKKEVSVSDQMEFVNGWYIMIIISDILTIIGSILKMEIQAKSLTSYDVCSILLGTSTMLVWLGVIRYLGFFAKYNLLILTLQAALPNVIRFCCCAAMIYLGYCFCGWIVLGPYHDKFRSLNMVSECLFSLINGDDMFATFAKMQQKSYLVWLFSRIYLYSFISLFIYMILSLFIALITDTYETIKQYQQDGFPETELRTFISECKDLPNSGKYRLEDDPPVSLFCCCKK
The assay can be described thus: Fluorescent TRPML3 assay (performed as for TRPML1, substituting the TRPML3 subtype). As for the experimental part: (§1) HEK-293 Trex cells were stably transfected with a construct consisting of the human coding sequence for TRPML1 cloned into the […] plasmid pCDNA5 T/O. Mutations were introduced into the TRPML1 sequence to facilitate expression on the cell surface (Silvia Vergarajauregui, Rosa Puertollano, Traffic. 2006 March; 7(3): 337-353). Briefly, the cells are cultured in 150 mm round tissue culture dishes containing 20 mL of media. The day before the assay the cells are rinsed with DPBS-Ca—Mg and then treated briefly with Trypsin-EDTA. The Trypsin-EDTA is diluted with growth media, and cells are counted. 38×10^6 cells are re-plated into 150 mm round tissue culture dishes in media containing 0.5 ug/mL doxycycline to induce expression of hTRPML1.
(§2) The day of the experiment cells are lifted from the plates as above and collected by centrifugation. The cells are then suspended in dye loading buffer consisting of Ringer's solution supplemented with 0.1% Pluronic Acid and 1 micromolar Fluo4-AM dye. Cells are loaded for ˜60 minutes in the dark with occasional mixing. The cells are collected by centrifugation, the loading media aspirated, and the cells resuspended in 25 mL Ringer's solution and incubated ˜60 minutes in the dark. The cells are again collected by centrifugation, rinsed in Ringer's Solution and resuspended to […] in modified Ringer's solution containing 10 mM calcium.
(§3) Compounds are dissolved to a concentration of 10 millimolar with DMSO. Compound plates are created by dispensing compounds into 384 well black wall clear bottom plates (Greiner 781091). Positive and negative controls are included on each plate. Typically, different amounts of each compound are tested ranging from 100 nanoMoles (20 micromolar final concentration) decreasing in half-log steps to 31 picoMoles (6 nanomolar final concentration). Each concentration is typically tested in triplicate.
(§4) 50 microliters of dye-loaded cells are dispensed into each well of the compound assay plate created above. The fluorescence in each well is then determined with an excitation wavelength of 480 nm and an emission wavelength of 540 nm using either a Molecular Devices SpectraMax multimode plate reader or a Hamamatsu FDSS/uCell plate imager.
(§5) The resulting fluorescence for each well is exported as an ascii file and loaded into our LIMS for analysis. The percent activity of each compound at each concentration is determined by comparison to the positive and negative control wells included in each plate.
(§6) TRPML2 and TRPML3 Assays Assays for TRPML2 and TRPML3 were performed as above for TRPML1, by substituting the appropriate TRPML2 or TRPML3 subtype for the TRPML1.
(§7) EC50 values were calculated using a non-linear regression of Prism. In the table, “A” indicates an EC50 of less than 100 nM, “B” indicates an EC50 range from 100 nM to 500 nM; “C” indicates an EC50 range from 500 nM to 2 μM; and “D” indicates an EC50 greater than 2 μM.

Another assay addresses T2, TRPML2 (Homo sapiens, UniProt Q8IZK6).
T2 construct: expressed in transfected cells
T2 sequence (Q8IZK6 1-566): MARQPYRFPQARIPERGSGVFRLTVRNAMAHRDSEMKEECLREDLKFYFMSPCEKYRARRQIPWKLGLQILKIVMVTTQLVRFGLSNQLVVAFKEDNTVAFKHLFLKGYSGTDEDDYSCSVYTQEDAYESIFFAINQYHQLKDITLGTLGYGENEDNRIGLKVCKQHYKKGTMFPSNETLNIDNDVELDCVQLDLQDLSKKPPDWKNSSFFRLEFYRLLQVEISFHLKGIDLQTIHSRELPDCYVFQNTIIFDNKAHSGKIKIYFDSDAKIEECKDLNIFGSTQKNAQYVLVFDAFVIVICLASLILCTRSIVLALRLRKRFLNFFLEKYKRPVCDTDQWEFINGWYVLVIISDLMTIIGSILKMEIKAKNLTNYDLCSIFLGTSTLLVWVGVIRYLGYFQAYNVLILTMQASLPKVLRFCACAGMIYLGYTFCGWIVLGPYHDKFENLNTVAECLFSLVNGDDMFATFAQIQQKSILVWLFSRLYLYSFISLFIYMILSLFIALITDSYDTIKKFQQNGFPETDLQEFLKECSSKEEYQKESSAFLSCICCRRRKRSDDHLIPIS
The assay can be described thus: Fluorescent TRPML2 assay (performed as for TRPML1, substituting the TRPML2 subtype). As to the method:
as §1, §2, §3, §4, §5, §6, §7

The target in a further assay is TRPML1 (Homo sapiens, UniProt Q9GZU1). The experiment in a line: Fluorescent TRPML1 assay (Fluo4-AM calcium fluorescence in doxycycline-induced HEK-293 Trex cells). The method, boiled down: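 HEK-293 Trex cells stably expressing surface-directed mutant human TRPML1, induced with 0.5 µg/mL doxycycline overnight, were loaded with 1 µM Fluo4-AM and added to compound (6 nM–20 µM final, half-log steps, triplicate) in Ringer's with 10 mM calcium. Fluorescence ex 480/em 540; EC50 by non-linear regression versus plate controls.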
Sequence of TRPML1 (Q9GZU1 whole entry L15A/L16A/L577A/L578A, form open): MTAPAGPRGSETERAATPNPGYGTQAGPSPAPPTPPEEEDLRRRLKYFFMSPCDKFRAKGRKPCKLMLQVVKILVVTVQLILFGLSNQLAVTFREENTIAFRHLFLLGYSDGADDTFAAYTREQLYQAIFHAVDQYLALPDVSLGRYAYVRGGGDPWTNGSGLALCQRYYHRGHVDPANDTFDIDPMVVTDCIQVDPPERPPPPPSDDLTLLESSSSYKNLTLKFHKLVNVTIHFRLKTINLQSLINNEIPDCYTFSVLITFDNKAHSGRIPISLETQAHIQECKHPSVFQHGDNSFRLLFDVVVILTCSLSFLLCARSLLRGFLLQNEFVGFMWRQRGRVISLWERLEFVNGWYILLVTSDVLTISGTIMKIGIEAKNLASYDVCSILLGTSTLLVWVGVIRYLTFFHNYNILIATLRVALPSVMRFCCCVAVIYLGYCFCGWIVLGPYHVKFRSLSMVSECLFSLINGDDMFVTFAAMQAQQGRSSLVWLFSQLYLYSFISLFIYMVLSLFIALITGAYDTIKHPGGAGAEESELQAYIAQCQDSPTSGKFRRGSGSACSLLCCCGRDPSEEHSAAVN

As to `Cc1cncc(-n2cc(C3CC3)c3c(N4CCN(C(=O)OC(C)(C)C)[C@@H](C)C4)ncnc32)c1` (single isomer, unassigned) [Compound 174], the values for the negative logarithm of the EC50 (pEC50) on TRPML3 (fluorescent calcium assay), at TRPML2 (fluorescent calcium assay) and on TRPML1 (fluorescent calcium assay) were 6.30 to 7.00, 5.70 to 6.30 and 6.30 to 7.00, respectively.
Turning to `Cc1cncc(-n2cc(C3CC3)c3c(N4CCN(C(=O)OC(C)(C)C)[C@H](C)C4)ncnc32)c1` (single isomer, unassigned) [Compound 175], the negative logarithm of the EC50 (pEC50) (in general, the negative decadic logarithm of the EC50, by convention in mol/L) was 5.70 to 6.30 at TRPML3 (fluorescent calcium assay), less than 5.70 at TRPML2 (fluorescent calcium assay) and 5.70 to 6.30 on TRPML1 (fluorescent calcium assay).
Turning to `CC(C)(C)OC(=O)N1CCN(c2ncnc3c2c(C2CC2)cn3-c2cc(F)cc(F)c2)C[C@H]1CF` (single isomer, unassigned) [Compound 269], the pEC50 was greater than 7.00 at TRPML3 (fluorescent calcium assay), 5.70 to 6.30 on TRPML2 (fluorescent calcium assay) and 6.30 to 7.00 at TRPML1 (fluorescent calcium assay).
For the molecule `CC(C)(C)OC(=O)N1CCN(c2ncnc3c2c(C2CC2)cn3-c2cc(F)cc(F)c2)C[C@@H]1CF` (single isomer, unassigned) [Compound 270], the pEC50 was 6.30 to 7.00 at TRPML3 (fluorescent calcium assay), less than 5.70 at TRPML2 (fluorescent calcium assay) and 5.70 to 6.30 at TRPML1 (fluorescent calcium assay).
On the same counts, the results for `CC(C)(C)OC(=O)N1CCN(c2ncnc3c2c(C2CC2)cn3-c2cc(F)cc(F)c2)C[C@H]1C(F)F` (single isomer, unassigned) [Compound 314] are 5.70 to 6.30, less than 5.70 and 5.70 to 6.30.
For `CC(C)(C)OC(=O)N1CCN(c2ncnc3c2c(C2CC2)cn3-c2cc(C#N)ccn2)[C@@H]2C[C@@H]21` (single isomer, unassigned) [Compound 408], in that order: greater than 7.00, 6.30 to 7.00 and 6.30 to 7.00.
For the molecule `CC(C)(C)OC(=O)N1CCN(c2ncnc3c2c(C2CC2)cn3-c2cc(C#N)ccn2)[C@H]2C[C@H]21` (single isomer, unassigned) [Compound 409], the figures for the pEC50 on TRPML3 (fluorescent calcium assay), at TRPML2 (fluorescent calcium assay) and on TRPML1 (fluorescent calcium assay) were greater than 7.00, 6.30 to 7.00 and greater than 7.00, respectively.
Consider `C[C@@H]1CN(c2ncnc3c2c(C(F)(F)F)cn3[C@@H]2CCCC(F)(F)C2)[C@@H](C)CN1C(=O)OC(C)(C)C` (single isomer, unassigned) [Compound 714], for which the pEC50 at TRPML3 was 6.30 to 7.00; at TRPML2, 5.70 to 6.30; at TRPML1, 6.30 to 7.00.
With `CC(C)(C)OC(=O)N1CCN(c2ncnc3c2c(-c2ccccn2)cn3-c2cccc(Cl)c2)CC1` [Compound 101, tert-butyl 4-(7-(3-chlorophenyl)-5-(pyridin-2-yl)-7H-pyrrolo[2,3-d]pyrimidin-4-yl)piperazine-1-carboxylate], the pEC50 at TRPML3 (fluorescent calcium assay) is greater than 7.00; on TRPML2 (fluorescent calcium assay), 6.30 to 7.00; on TRPML1 (fluorescent calcium assay), 6.30 to 7.00.
Regarding `C[C@H]1CN(C(=O)OC(C)(C)C)CCN1c1ncnc2c1c(-c1ccccc1)cn2-c1cc(C#N)ccn1` [Compound 320, tert-butyl (S)-4-(7-(4-cyanopyridin-2-yl)-5-phenyl-7H-pyrrolo[2,3-d]pyrimidin-4-yl)-3-methylpiperazine-1-carboxylate], the pEC50 on TRPML2 (fluorescent calcium assay) was 6.30 to 7.00; on TRPML1 (fluorescent calcium assay), greater than 7.00.
Take `COC(=O)N1CCN(c2ncnc3c2c(-c2ccccc2F)cn3-c2cc(C#N)ccn2)[C@@H](C)C1` [Compound 351, methyl (S)-4-(7-(4-cyanopyridin-2-yl)-5-(2-fluorophenyl)-7H-pyrrolo[2,3-d]pyrimidin-4-yl)-3-methylpiperazine-1-carboxylate]: the pEC50 on TRPML2 (fluorescent calcium assay) is 5.70 to 6.30; at TRPML1 (fluorescent calcium assay), greater than 7.00.
As to `C[C@@H]1CN(c2ncnc3c2c(C(F)(F)F)cn3C2CCOCC2)[C@@H](C)CN1C(=O)OC(C)(C)C` [Compound 630, tert-butyl (2R,5S)-2,5-dimethyl-4-(7-(tetrahydro-2H-pyran-4-yl)-5-(trifluoromethyl)-7H-pyrrolo[2,3-d]pyrimidin-4-yl)piperazine-1-carboxylate], the negative logarithm of the EC50 (pEC50) at TRPML3 was less than 5.70; on TRPML1, 5.70 to 6.30.
With `C[C@@H]1CN(c2ncnc3c2c(C(F)(F)F)cn3[C@H]2CCCOC2)[C@@H](C)CN1C(=O)OC(C)(C)C` [Compound 631, tert-butyl (2R,5S)-2,5-dimethyl-4-(7-((S)-tetrahydro-2H-pyran-3-yl)-5-(trifluoromethyl)-7H-pyrrolo[2,3-d]pyrimidin-4-yl)piperazine-1-carboxylate], the values for the negative-log EC50 (pEC50) at TRPML3 and at TRPML1 were less than 5.70 and 5.70 to 6.30, respectively.
For the molecule `C[C@@H]1CN(c2ncnc3c2c(C(F)(F)F)cn3[C@@H]2CCCOC2)[C@@H](C)CN1C(=O)OC(C)(C)C` [Compound 632, tert-butyl (2R,5S)-2,5-dimethyl-4-(7-((R)-tetrahydro-2H-pyran-3-yl)-5-(trifluoromethyl)-7H-pyrrolo[2,3-d]pyrimidin-4-yl)piperazine-1-carboxylate], the negative logarithm of the EC50 (pEC50) at TRPML3 is less than 5.70; on TRPML1, 5.70 to 6.30.
Turning to `C[C@@H]1CN(c2ncnc3c2c(C(F)F)cn3C2CCC(C#N)C2)[C@@H](C)CN1C(=O)OC(C)(C)C` (stereo partly drawn) [Compound 634], the pEC50 on TRPML3 and on TRPML1 was 5.70 to 6.30 each time.
As to `Cc1cn(-c2cncnc2)c2ncnc(N3C[C@@H](C)N(C(=O)OC(C)(C)C)C[C@@H]3C)c12` [Compound 674, tert-butyl (2R,5S)-2,5-dimethyl-4-(5-methyl-7-(pyrimidin-5-yl)-7H-pyrrolo[2,3-d]pyrimidin-4-yl)piperazine-1-carboxylate], the pEC50 on TRPML3 and at TRPML1 was less than 5.70 in each case.
`Cc1cn(-c2cncnc2)c2ncnc(N3CCN(C(=O)OC(C)(C)C)C[C@@H]3C)c12` [Compound 691, tert-butyl (S)-3-methyl-4-(5-methyl-7-(pyrimidin-5-yl)-7H-pyrrolo[2,3-d]pyrimidin-4-yl)piperazine-1-carboxylate]: the pEC50 at TRPML3 and on TRPML1 was 5.70 to 6.30 throughout.
With `Cc1cn(-c2cncc(C#N)c2)c2ncnc(N3CCN(C(=O)OC(C)(C)C)C[C@@H]3C)c12` [Compound 694, tert-butyl (S)-4-(7-(5-cyanopyridin-3-yl)-5-methyl-7H-pyrrolo[2,3-d]pyrimidin-4-yl)-3-methylpiperazine-1-carboxylate], the pEC50 was greater than 7.00 on TRPML3 and 6.30 to 7.00 at TRPML1.

The values are drawn from patent US20250136606A1, “MODULATORS OF TRPML, THEIR COMPOSITIONS AND METHODS OF USE” (Caraway Therapeutics, Inc., priority 2021, published 2025).
